According to ChEMBL document CHEMBL1201862, “PubChem BioAssay data set” (2004):
Calls of active or inactive are those of the source.

Assays:
[1] = target: T1, Zinc finger protein mex-5 (Caenorhabditis elegans, UniProt Q9XUB2); assay: potency of MEX-5 RNA-binding blockers – biochemical, C. elegans, fluorescence polarization, dose response (AID 1960)
T1 sequence (Q9XUB2 whole entry): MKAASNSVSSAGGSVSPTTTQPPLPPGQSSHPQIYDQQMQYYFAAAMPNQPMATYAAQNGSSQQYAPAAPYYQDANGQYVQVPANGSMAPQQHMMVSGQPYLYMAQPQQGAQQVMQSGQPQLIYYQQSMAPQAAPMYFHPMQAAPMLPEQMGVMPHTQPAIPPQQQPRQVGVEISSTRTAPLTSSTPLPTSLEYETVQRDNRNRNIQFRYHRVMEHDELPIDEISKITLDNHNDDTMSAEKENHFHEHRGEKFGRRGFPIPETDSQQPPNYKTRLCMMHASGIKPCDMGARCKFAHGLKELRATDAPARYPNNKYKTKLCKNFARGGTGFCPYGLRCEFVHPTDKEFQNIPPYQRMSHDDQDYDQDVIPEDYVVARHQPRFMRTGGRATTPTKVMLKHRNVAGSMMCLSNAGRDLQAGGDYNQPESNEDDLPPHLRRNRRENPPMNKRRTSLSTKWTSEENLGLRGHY

[2] = target: T2, RNA-binding protein pos-1 (Caenorhabditis elegans, UniProt G5EF15); assay: disruptors of C. elegans POS-1 RNA interaction – biochemical, fluorescence polarization, dose response (AID 1964);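 further: purified POS-1 fused to maltose binding protein made in E. coli; potency of compounds blocking POS-1 binding to fluorescent RNA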
T2 sequence (G5EF15 whole entry): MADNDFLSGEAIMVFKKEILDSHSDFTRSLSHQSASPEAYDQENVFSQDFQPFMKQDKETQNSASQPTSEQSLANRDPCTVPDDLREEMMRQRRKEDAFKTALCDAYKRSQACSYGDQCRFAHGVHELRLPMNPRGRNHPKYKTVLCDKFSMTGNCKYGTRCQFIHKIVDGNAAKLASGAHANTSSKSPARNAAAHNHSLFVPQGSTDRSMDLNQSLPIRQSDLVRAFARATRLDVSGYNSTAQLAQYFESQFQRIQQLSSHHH

[3] = target: T3, Endoribonuclease toxin MazF (Escherichia coli K-12, UniProt P0AE70); assay: activation of MazEF endoribonuclease cleavage – biochemical, fluorescence, single-stranded RNA substrate, uHTS hits, dose response (AID 588481); format: functional
T3 sequence (P0AE70 whole entry): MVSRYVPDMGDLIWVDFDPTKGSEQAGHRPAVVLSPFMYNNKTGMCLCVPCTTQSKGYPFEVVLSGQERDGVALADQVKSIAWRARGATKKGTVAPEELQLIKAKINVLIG

[4] = target: G-protein coupled receptor 55 (Homo sapiens, UniProt Q9Y2T6); assay: selective activators of receptor GPR55 – imaging, U2OS cells, beta-arrestin-GFP redistribution, primary screen (AID 1961); format: functional
Sequence of G-protein coupled receptor 55 (Q9Y2T6 whole entry): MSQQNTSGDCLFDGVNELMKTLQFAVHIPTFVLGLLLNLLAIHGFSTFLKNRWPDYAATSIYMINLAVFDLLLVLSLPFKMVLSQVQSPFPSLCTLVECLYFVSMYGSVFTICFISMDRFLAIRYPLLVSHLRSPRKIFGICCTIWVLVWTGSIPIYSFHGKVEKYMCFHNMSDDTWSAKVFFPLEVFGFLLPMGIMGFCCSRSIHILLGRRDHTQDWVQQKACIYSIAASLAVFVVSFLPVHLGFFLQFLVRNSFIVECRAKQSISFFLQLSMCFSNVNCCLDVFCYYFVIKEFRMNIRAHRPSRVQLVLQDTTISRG

[5] = target: Neurotensin receptor type 1 (Homo sapiens, UniProt P30989); format: functional;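 further: Image-based confirmatory dose-response assay measuring agonist activity at NTR1; NTR1-expressing U2OS osteosarcoma cells imaged for beta-arrestin GFP spot formation; agonist potency where compounds increase beta-arrestin recruitment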
Sequence of Neurotensin receptor type 1 (P30989 whole entry): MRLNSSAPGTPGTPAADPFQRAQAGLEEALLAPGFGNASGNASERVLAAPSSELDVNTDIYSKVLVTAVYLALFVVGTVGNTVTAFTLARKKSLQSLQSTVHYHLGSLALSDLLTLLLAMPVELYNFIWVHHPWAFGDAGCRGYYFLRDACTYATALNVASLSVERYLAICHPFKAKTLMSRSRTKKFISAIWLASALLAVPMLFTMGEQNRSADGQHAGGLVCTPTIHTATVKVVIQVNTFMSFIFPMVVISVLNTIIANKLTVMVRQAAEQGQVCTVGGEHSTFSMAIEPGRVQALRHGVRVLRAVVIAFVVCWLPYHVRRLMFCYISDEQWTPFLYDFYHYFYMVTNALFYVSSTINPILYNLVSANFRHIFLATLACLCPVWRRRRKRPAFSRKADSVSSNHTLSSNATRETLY

[6] = target: T3, Endoribonuclease toxin MazF; assay: substrate-only fluorescence increase artefacts – biochemical, single-stranded RNase substrate, counter-screen for MazEF activator project, dose response (AID 588502); format: functional
cells [7] = format: functional, cell-based
Coagulation factor XII = Coagulation factor XII (Homo sapiens, UniProt P00748); assay: activated coagulation factor XII inhibitor potency, concentration-effect curve, cell-free (AID 716); format: functional
Sequence of Coagulation factor XII (P00748 20-372 limits assumed): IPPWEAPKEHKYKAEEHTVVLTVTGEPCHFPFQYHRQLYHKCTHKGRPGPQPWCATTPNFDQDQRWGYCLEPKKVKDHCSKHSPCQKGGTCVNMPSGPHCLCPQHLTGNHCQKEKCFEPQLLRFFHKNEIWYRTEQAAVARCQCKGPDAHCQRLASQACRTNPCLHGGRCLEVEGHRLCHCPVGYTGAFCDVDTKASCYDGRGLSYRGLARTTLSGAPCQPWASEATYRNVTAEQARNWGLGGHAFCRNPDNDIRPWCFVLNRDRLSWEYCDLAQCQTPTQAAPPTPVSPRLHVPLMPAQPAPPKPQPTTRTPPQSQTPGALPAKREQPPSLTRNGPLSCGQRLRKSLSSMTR
Sequence of Coagulation factor XII (P00748 373-615 limits assumed): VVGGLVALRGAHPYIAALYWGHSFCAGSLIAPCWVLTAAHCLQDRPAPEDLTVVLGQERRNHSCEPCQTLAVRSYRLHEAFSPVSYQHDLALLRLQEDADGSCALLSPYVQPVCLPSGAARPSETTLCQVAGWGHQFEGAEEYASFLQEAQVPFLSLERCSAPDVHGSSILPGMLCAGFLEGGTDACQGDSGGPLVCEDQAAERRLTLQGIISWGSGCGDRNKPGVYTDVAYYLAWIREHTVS

[8] = target: T4, Trace amine-associated receptor 1 (Homo sapiens, UniProt Q96RJ0); assay: Fluorescence-based cell-based high throughput dose response assay to identify agonists of the human trace amine associated receptor 1 (TAAR1).; format: functional
T4 sequence (Q96RJ0 whole entry): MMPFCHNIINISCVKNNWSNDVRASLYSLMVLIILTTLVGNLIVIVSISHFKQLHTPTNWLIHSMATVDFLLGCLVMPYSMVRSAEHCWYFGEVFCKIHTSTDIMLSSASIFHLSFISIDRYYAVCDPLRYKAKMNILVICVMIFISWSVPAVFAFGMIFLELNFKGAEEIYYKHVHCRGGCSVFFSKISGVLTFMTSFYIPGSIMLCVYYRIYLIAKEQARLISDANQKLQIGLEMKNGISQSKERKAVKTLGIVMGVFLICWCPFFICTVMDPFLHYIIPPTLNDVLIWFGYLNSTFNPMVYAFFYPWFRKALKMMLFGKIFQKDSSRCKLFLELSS

cells [9] = format: functional, cell-based; remark: listed apart in the source
[10] = target: T4, Trace amine-associated receptor 1; assay: Counterscreen for agonists of the human trace amine associated receptor 1 (hTAAR1): Fluorescence-based cell-based high throughput dose response assay to identify hTAAR1 agonist that also desensitize TAAR1 receptor response.; format: functional
[11] = target: T5, Tyrosine-protein phosphatase non-receptor type 7 (Homo sapiens, UniProt P35236); format: functional
T5 sequence (P35236 whole entry): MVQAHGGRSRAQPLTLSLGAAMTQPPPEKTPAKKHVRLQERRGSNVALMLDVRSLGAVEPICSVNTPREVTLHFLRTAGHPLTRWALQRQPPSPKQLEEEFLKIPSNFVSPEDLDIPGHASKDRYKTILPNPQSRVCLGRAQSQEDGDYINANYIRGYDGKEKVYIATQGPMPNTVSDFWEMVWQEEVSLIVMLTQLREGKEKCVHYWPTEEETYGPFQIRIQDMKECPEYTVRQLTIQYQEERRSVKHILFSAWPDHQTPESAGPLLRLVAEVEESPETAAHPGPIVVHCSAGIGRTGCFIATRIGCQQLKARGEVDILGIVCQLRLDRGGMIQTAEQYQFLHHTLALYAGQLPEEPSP

[12] = target: Glyceraldehyde-3-phosphate dehydrogenase (Homo sapiens, UniProt P04406)
Sequence of Glyceraldehyde-3-phosphate dehydrogenase (P04406 whole entry): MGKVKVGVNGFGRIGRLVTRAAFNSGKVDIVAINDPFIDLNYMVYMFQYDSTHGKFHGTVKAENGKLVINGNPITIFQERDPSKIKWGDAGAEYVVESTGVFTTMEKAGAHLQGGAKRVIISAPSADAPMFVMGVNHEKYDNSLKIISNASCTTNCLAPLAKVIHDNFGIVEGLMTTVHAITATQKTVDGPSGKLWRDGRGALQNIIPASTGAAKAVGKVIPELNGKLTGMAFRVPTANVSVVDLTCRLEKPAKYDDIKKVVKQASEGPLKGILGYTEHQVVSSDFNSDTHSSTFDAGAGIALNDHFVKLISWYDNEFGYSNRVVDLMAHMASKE

[13] = target: Heat shock cognate 71 kDa protein (Homo sapiens, UniProt P11142); assay: In Vitro Hsc70 Dose Response Fluorescence Polarization Assay. [Related pubchem assays: 1072 ]
Sequence of Heat shock cognate 71 kDa protein (P11142 whole entry): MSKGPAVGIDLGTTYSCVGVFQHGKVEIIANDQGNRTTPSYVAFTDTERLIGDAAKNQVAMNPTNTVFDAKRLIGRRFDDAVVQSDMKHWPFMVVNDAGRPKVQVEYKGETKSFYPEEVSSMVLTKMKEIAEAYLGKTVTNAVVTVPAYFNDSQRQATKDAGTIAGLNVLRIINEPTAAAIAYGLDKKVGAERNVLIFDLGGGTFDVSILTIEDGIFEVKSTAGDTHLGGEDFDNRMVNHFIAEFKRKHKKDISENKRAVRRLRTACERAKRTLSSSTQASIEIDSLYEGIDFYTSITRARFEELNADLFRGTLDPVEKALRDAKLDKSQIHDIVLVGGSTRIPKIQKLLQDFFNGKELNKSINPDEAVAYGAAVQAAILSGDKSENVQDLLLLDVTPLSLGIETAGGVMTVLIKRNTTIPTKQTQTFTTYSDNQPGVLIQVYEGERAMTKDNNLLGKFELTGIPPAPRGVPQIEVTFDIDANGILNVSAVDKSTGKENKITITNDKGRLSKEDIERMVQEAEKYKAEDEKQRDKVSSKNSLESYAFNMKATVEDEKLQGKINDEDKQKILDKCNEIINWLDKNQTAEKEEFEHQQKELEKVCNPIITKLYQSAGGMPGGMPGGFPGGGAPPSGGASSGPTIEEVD

[14] = target: Dual specificity protein phosphatase 3 (Homo sapiens, UniProt P51452); assay: SAR VHR1 Fluorescent Assay for In Vitro dose response studies. [Related pubchem assays (depositor defined):AID1654, AID1661, AID1878, AID1992, AID2004, AID2070, AID2085]; format: functional
Sequence of Dual specificity protein phosphatase 3 (P51452 whole entry): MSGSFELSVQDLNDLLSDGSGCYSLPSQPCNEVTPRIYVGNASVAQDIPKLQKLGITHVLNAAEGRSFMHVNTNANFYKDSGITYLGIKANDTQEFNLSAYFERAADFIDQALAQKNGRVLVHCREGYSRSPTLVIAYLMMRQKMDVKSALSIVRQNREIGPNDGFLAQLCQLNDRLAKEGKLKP

[15] = target: T5, Tyrosine-protein phosphatase non-receptor type 7; assay: redox-active compounds inhibiting HePTP phosphatase – biochemical, fluorescence, mechanism study (AID 2068); format: functional
[16] = target: Heat shock 70 kDa protein 1A (Homo sapiens, UniProt P0DMV8); assay: inhibition of Hsp70 binding activity – biochemical, fluorescence polarization, SAR follow-up (AID 1072)
Sequence of Heat shock 70 kDa protein 1A (P0DMV8 whole entry): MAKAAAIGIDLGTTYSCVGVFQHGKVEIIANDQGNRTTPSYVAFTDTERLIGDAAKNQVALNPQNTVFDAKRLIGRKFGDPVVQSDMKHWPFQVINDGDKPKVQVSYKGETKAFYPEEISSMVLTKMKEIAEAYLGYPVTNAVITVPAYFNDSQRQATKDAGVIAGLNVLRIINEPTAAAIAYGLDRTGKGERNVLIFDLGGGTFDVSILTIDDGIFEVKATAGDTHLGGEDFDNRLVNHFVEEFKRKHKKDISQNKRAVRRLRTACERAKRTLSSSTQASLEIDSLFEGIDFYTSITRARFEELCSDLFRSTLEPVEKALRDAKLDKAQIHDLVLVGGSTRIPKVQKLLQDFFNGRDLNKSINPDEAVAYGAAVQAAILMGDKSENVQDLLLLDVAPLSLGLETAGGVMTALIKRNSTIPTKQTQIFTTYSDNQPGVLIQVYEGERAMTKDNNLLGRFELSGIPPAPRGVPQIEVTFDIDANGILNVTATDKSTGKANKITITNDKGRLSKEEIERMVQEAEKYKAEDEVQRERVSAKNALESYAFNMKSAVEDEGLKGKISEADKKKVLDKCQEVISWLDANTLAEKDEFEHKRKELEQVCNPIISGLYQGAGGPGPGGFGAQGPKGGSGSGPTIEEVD

[17] = target: T6, Dual specificity protein phosphatase 6 (Rattus norvegicus, UniProt Q64346);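 further: in vitro confirmatory secondary MKP-3 assay designed to detect irreversible or slow-binding inhibitors; recombinant His-tagged rat MKP-3 acting on the substrate OMFP; inhibitor potency from reduced phosphatase rate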
T6 sequence (Q64346 whole entry): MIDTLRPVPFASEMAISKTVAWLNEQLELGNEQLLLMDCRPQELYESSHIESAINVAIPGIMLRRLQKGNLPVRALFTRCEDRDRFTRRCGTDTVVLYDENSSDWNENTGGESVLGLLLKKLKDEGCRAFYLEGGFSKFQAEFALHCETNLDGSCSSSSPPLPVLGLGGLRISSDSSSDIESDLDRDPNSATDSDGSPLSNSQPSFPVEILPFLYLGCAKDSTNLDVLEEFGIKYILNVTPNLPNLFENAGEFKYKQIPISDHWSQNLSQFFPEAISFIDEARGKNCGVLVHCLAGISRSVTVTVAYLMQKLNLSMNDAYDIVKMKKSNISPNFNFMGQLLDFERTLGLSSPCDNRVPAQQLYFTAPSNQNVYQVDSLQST

Hexokinase = Hexokinase (Trypanosoma brucei, UniProt Q38C41); assay: Confirmation assay for inhibitors of Trypanosoma brucei hexokinase 1-Analogue-first series. [Related pubchem assays (depositor defined):AID1430, AID1632, AID2516, AID2560, AID2579, AID2600, AID449725, AID492951]; format: functional
Sequence of Hexokinase (Q38C41 whole entry): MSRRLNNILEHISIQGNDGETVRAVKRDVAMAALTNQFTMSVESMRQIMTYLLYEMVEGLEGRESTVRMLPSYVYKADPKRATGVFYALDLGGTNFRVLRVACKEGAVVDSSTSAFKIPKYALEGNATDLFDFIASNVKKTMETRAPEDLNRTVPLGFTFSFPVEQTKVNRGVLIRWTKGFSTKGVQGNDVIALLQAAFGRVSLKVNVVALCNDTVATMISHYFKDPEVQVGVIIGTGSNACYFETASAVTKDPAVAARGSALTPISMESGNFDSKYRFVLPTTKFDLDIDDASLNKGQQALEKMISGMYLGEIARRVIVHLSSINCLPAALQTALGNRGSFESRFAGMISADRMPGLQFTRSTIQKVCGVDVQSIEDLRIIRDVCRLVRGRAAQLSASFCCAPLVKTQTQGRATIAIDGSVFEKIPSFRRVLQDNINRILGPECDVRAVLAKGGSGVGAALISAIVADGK

[18] = target: T7, Intestinal-type alkaline phosphatase (Homo sapiens, UniProt P09923); assay: activation of human intestinal alkaline phosphatase – biochemical, luminescent, uHTS hits, set 2, dose response (AID 488817); format: functional;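 further: potency of activators that raise enzyme activity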
T7 sequence (P09923 whole entry): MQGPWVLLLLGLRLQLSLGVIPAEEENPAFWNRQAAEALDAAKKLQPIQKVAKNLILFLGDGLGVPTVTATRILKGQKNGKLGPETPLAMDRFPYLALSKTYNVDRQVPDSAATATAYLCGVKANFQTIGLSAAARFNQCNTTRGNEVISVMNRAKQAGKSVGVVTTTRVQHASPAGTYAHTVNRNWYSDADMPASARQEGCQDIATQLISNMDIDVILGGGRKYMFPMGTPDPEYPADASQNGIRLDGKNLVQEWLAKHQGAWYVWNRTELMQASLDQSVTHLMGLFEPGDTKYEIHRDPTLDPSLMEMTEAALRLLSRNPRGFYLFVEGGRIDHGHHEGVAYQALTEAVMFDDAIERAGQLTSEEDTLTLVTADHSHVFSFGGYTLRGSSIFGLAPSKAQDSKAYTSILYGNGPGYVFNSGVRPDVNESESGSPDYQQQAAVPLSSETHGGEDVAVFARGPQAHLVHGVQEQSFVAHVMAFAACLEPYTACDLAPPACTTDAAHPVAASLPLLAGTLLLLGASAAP

[19] = target: Intestinal-type alkaline phosphatase (Mus musculus, UniProt P24822); assay: PubChem AID 488875; format: functional
Sequence of Intestinal-type alkaline phosphatase (Mus musculus, UniProt P24822) (P24822 whole entry): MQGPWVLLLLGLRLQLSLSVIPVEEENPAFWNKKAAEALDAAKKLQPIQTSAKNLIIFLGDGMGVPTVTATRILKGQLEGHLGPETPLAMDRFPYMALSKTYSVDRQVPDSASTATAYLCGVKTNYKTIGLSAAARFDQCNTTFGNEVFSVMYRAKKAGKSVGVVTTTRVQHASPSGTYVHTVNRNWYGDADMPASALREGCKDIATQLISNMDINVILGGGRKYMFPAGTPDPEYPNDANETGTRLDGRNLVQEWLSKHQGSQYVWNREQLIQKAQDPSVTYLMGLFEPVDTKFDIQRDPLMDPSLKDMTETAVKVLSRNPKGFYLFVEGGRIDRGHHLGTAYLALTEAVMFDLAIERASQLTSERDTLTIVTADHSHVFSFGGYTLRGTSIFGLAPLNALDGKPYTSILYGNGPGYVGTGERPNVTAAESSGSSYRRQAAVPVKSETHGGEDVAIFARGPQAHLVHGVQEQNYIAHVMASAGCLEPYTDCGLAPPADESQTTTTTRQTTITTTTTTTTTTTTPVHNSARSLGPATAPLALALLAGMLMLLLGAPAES

[20] = target: T8, Alkaline phosphatase, tissue-nonspecific isozyme (Homo sapiens, UniProt P05186); assay: activation of tissue-nonspecific alkaline phosphatase – biochemical, TNAP isozyme, human IAP uHTS hits, selectivity assay for human IAP activator project, dose response (AID 488886); format: functional;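 further: potency of compounds raising TNAP activity as a selectivity check on IAP activators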
T8 sequence (P05186 whole entry): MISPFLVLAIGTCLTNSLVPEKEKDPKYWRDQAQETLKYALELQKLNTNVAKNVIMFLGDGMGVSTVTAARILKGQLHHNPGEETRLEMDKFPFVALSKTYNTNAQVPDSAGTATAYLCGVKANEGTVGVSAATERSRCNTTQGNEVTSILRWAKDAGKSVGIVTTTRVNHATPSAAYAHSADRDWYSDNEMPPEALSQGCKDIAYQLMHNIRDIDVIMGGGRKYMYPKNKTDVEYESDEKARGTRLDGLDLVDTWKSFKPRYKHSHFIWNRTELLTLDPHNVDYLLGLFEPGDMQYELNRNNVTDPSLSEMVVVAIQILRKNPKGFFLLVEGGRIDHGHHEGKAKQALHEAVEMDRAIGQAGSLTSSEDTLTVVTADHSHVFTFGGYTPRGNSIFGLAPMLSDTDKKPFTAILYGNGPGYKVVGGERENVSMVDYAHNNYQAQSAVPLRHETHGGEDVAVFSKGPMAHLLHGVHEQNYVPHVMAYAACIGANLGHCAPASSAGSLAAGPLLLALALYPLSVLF

[21] = target: T7, Intestinal-type alkaline phosphatase; assay: human intestinal alkaline phosphatase activators, dose response, biochemical, luminescence, uHTS hits (AID 463120); format: functional

Question: Which EC50 [1] does the source give for `COc1cc2c3nnc(-c4ccccc4)c-3cn(Cc3ccccc3F)c2cc1OC` here?
Answer: > 300 µM (inconclusive)

Question: What about the EC50 [2] of the same molecule?
Answer: > 300 µM (not active)

Question: What about the EC50 [3] of the same molecule?
Answer: > 99 µM (inactive)

Question: And the EC50 [4]?
Answer: 0.807 µM (active)

Question: And the EC50 [5]?
Answer: 5.8 µM (active)

Question: What about the EC50 [6] of the same molecule?
Answer: 34.6 µM (inactive)

Question: Which results are given for `O=C(O)C1CCCCC1C(=O)NCCc1ccccc1` (stereo not drawn)?
Answer: EC50 (cells [7]): > 29.9 µM (inactive); IC50 (Coagulation factor XII): > 50 µM (inactive); EC50 [8]: 1.42 µM (active); IC50 (cells [9]): > 29.9 µM (inactive); IC50 [10]: 8.04 µM (active)

Question: Which IC50 [11] does the source give for `O=C1c2ccccc2CC1Sc1nnc(-c2ccco2)c(-c2ccco2)n1` (stereo not drawn) here?
Answer: 8.11 µM (active)

Question: And the IC50 [12]?
Answer: > 100 µM (not active)

Question: What about the IC50 [13] of the same molecule?
Answer: > 100 µM (not active)

Question: And the IC50 [14]?
Answer: 27.9 µM (active)

Question: And the IC50 [15]?
Answer: 1.12 µM (active)

Question: And the IC50 [16]?
Answer: > 100 µM (not active)

Question: What about the IC50 [17] of the same molecule?
Answer: 42.1 µM (active)

Question: Which IC50 (Hexokinase) does the source give for `CCc1ccc(C(=O)Nc2cc(Cl)ccc2C(=O)O)cc1` here?
Answer: 3.04 µM (active)

Question: Which results are given for `COc1cc(CN2CCC(n3nccc3NC(=O)CCCc3ccccc3)CC2)ccc1F`?
Answer: EC50 [18]: 79.7 µM (active); EC50 [19]: 58.2 µM (active); EC50 [20]: 66.1 µM (active); EC50 [21]: 68.7 µM (active)
